US7462600B2, “Macrolides” (Pfizer Inc, priority 2004, dated 2008)
Values after ≈ are worked out from the molar mass of the structure shown.

Columns and labels:
Format in all cases: cell-based
[1] = test system: Streptococcus pyogenes 1079; experiment: MIC, microtiter broth dilution (NCCLS M100-S14), S. pyogenes 1079 (ermB); settings: Streptococcus pyogenes 1079
Procedure, shortened: (§1)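 DMSO stocks, 40 mg/ml; trays scored for MIC following M100-S14 (NCCLS).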

[2] = test system: Streptococcus pneumoniae 1016; experiment: MIC, microtiter broth dilution (NCCLS M100-S14), S. pneumoniae 1016 (susceptible); settings: Streptococcus pneumoniae 1016
Procedure, shortened: as §1

[3] = test system: Streptococcus pneumoniae 1095; settings: Streptococcus pneumoniae 1095; microtiter broth dilution
Procedure, shortened: as §1

[4] = test system: Streptococcus pneumoniae 1175; settings: Streptococcus pneumoniae 1175; microtiter broth dilution
Procedure, shortened: as §1

[5] = test system: Haemophilus influenzae 1218; experiment: MIC, microtiter broth dilution (NCCLS M100-S14), H. influenzae 1218 (susceptible); settings: Haemophilus influenzae 1218
Procedure, shortened: as §1

Structure (SMILES) | MIC S. pyogenes 1079 [1] [µg/mL] | MIC S. pneumo. 1016 [2] [µg/mL] | MIC S. pneumo. 1095 [3] [µg/mL] | MIC S. pneumo. 1175 [4] [µg/mL] | MIC H. influenzae 1218 [5] [µg/mL]
CCC1OC(=O)C(C)C(=O)C(C)C(OC2OC(C)CC(N(C)C)C2O)C(C)(OC)CC(C)C(=O)C(C)C2N(C3CN(C(=O)c4ccc(-c5noc(C)n5)cc4)C3)C(=O)OC12C (stereo not shown) [Example 2.12] | >64.00 | <0.06 | 2 (≈ 2.34 µM) | 0.25 (≈ 0.293 µM) | 32 (≈ 37.5 µM)
CCC1OC(=O)C(C)C(=O)C(C)C(OC2OC(C)CC(N(C)C)C2O)C(C)(OC)CC(C)C(=O)C(C)C2N(C3CN(C(=O)c4ccc(-n5cccn5)cc4)C3)C(=O)OC12C (stereo not shown) [Example 2.13] | >64.00 | <0.06 | 2 (≈ 2.39 µM) | 0.12 (≈ 0.143 µM) | 8 (≈ 9.55 µM)
CCC1OC(=O)C(C)C(=O)C(C)C(OC2OC(C)CC(N(C)C)C2O)C(C)(OC)CC(C)C(=O)C(C)C2N(C3CN(C(=O)c4ccc(-n5ccnc5)cc4)C3)C(=O)OC12C (stereo not shown) [Example 2.14] | >64.00 | <0.06 | 2 (≈ 2.39 µM) | 0.25 (≈ 0.298 µM) | 4 (≈ 4.77 µM)
CCC1OC(=O)C(C)C(=O)C(C)C(OC2OC(C)CC(N(C)C)C2O)C(C)(OC)CC(C)C(=O)C(C)C2N(C3CN(C(=O)c4cccc(-c5noc(C)n5)c4)C3)C(=O)OC12C (stereo not shown) [Example 2.16, 3-(5-methyl-1,2,4-oxadiazol-3-yl)benzoyl] | >64.00 | <0.06 | 16 (≈ 18.7 µM) | 0.25 (≈ 0.293 µM) | 64 (≈ 74.9 µM)
CCC1OC(=O)C(C)C(=O)C(C)C(OC2OC(C)CC(N(C)C)C2O)C(C)(OC)CC(C)C(=O)C(C)C2N(C3CN(C(=O)c4cccc(-n5nc(C)cc5C)c4)C3)C(=O)OC12C (stereo not shown) [Example 2.17, 3-(3,5-dimethyl-1H-pyrazol-1-yl)benzoyl] | >64.00 | <0.06 | >64.00 | 0.25 (≈ 0.289 µM) | >64.00
CCC1OC(=O)C(C)C(=O)C(C)C(OC2OC(C)CC(N(C)C)C2O)C(C)(OC)CC(C)C(=O)C(C)C2N(C3CN(C(=O)c4ccnc(-c5noc(C)n5)c4)C3)C(=O)OC12C (stereo not shown) [Example 2.18] | >64.00 | <0.06 | >64.00 | 0.5 (≈ 0.585 µM) | 32 (≈ 37.4 µM)
CCC1OC(=O)C(C)C(=O)C(C)C(OC2OC(C)CC(N(C)C)C2O)C(C)(OC)CC(C)C(=O)C(C)C2N(C3CN(C(=O)c4ccnc(-n5cnnn5)c4)C3)C(=O)OC12C (stereo not shown) [Example 2.19, 2-(1H-tetrazol-1-yl)pyridine-4-carboxyl] | >64.00 | <0.06 | >64.00 | 0.5 (≈ 0.595 µM) | 32 (≈ 38.1 µM)
CCC1OC(=O)C(C)C(=O)C(C)C(OC2OC(C)CC(N(C)C)C2O)C(C)(OC)CC(C)C(=O)C(C)C2N(C3CN(C(=O)c4ccc(-n5cccn5)nc4)C3)C(=O)OC12C (stereo not shown) [Example 2.20] | >64.00 | <0.06 | 1 (≈ 1.19 µM) | 0.12 (≈ 0.143 µM) | 16 (≈ 19.1 µM)
CCC1OC(=O)C(C)C(=O)C(C)C(OC2OC(C)CC(N(C)C)C2O)C(C)(OC)CC(C)C(=O)C(C)C2N(C3CN(S(=O)(=O)c4cccnc4)C3)C(=O)OC12C (stereo not shown) [Example 3.01, 3-descladinosyl-11,12-dideoxy-6-O-methyl-3-oxo-12,11-(oxycarbonyl-(1-(pyridine-3-sulfonyl)-azetidin-3-yl)-imino)-erythromycin A] | 4 (≈ 4.94 µM) | <0.06 | <0.06 | <0.06 | 0.25 (≈ 0.309 µM)
CCC1OC(=O)C(C)C(=O)C(C)C(OC2OC(C)CC(N(C)C)C2O)C(C)(OC)CC(C)C(=O)C(C)C2N(C3CN(S(=O)(=O)c4cccc5ccccc45)C3)C(=O)OC12C (stereo not shown) [Example 3.02, 3-descladinosyl-11,12-dideoxy-6-O-methyl-3-oxo-12,11-(oxycarbonyl-(1-(naphthalene-1-sulfonyl)-azetidin-3-yl)-imino)-erythromycin A] | 0.5 (≈ 0.583 µM) | <0.06 | <0.06 | <0.06 | 0.12 (≈ 0.14 µM)
CCC1OC(=O)C(C)C(=O)C(C)C(OC2OC(C)CC(N(C)C)C2O)C(C)(OC)CC(C)C(=O)C(C)C2N(C3CN(S(=O)(=O)c4cccc5cccnc45)C3)C(=O)OC12C (stereo not shown) [Example 3.03, 3-descladinosyl-11,12-dideoxy-O-methyl-3-oxo-12,11-(oxycarbonyl-(1-(quinoline-8-sulfonyl)-azetidin-3-yl)-imino)-erythromycin A] | 1 (≈ 1.16 µM) | <0.06 | <0.06 | <0.06 | 0.12 (≈ 0.14 µM)
CCC1OC(=O)C(C)C(=O)C(C)C(OC2OC(C)CC(N(C)C)C2O)C(C)(OC)CC(C)C(=O)C(C)C2N(C3CN(S(=O)(=O)c4cccc5cnccc45)C3)C(=O)OC12C (stereo not shown) [Example 3.04, 3-descladinosyl-11,12-dideoxy-6-O-methyl-3-oxo-12,11-(oxycarbonyl-(1-(isoquinoline-5-sulfonyl)-azetidin-3-yl)-imino)-erythromycin A] | 0.12 (≈ 0.14 µM) | <0.06 | <0.06 | <0.06 | 0.25 (≈ 0.291 µM)
CCC1OC(=O)C(C)C(=O)C(C)C(OC2OC(C)CC(N(C)C)C2O)C(C)(OC)CC(C)C(=O)C(C)C2N(C3CN(S(=O)(=O)c4cccc5nonc45)C3)C(=O)OC12C (stereo not shown) [Example 3.05] | 16 (≈ 18.8 µM) | <0.06 | 2 (≈ 2.35 µM) | <0.06 | 0.25 (≈ 0.294 µM)
CCC1OC(=O)C(C)C(=O)C(C)C(OC2OC(C)CC(N(C)C)C2O)C(C)(OC)CC(C)C(=O)C(C)C2N(C3CN(S(=O)(=O)c4cccc5nsnc45)C3)C(=O)OC12C (stereo not shown) [Example 3.06, 3-descladinosyl-11,12-dideoxy-6-O-methyl-3-oxo-12,11-(oxycarbonyl-(1-(benzo[1,2,5]thiadiazole-4-sulfonyl)-azetidin-3-yl)-imino)erythromycin A] | 1 (≈ 1.15 µM) | <0.06 | <0.06 | <0.06 | 0.12 (≈ 0.139 µM)
CCC1OC(=O)C(C)C(=O)C(C)C(OC2OC(C)CC(N(C)C)C2O)C(C)(OC)CC(C)C(=O)C(C)C2N(C3CN(S(=O)(=O)c4ccccc4F)C3)C(=O)OC12C (stereo not shown) [Example 3.07, 2-fluorobenzenesulfonyl] | 16 (≈ 19.4 µM) | <0.06 | <0.06 | <0.06 | 0.5 (≈ 0.605 µM)
CCC1OC(=O)C(C)C(=O)C(C)C(OC2OC(C)CC(N(C)C)C2O)C(C)(OC)CC(C)C(=O)C(C)C2N(C3CN(S(=O)(=O)c4cccc(F)c4)C3)C(=O)OC12C (stereo not shown) [Example 3.08, 3-fluorobenzenesulfonyl] | 16 (≈ 19.4 µM) | <0.06 | <0.06 | <0.06 | 0.5 (≈ 0.605 µM)
CCC1OC(=O)C(C)C(=O)C(C)C(OC2OC(C)CC(N(C)C)C2O)C(C)(OC)CC(C)C(=O)C(C)C2N(C3CN(S(=O)(=O)c4ccc(F)cc4)C3)C(=O)OC12C (stereo not shown) [Example 3.09, 4-fluorobenzenesulfonyl] | 16 (≈ 19.4 µM) | <0.06 | <0.06 | 0.25 (≈ 0.303 µM) | 0.25 (≈ 0.303 µM)
CCC1OC(=O)C(C)C(=O)C(C)C(OC2OC(C)CC(N(C)C)C2O)C(C)(OC)CC(C)C(=O)C(C)C2N(C3CN(S(=O)(=O)c4cccc(C#N)c4)C3)C(=O)OC12C (stereo not shown) [Example 3.10, 3-descladinosyl-11,12-dideoxy-6-O-methyl-3-oxo-12,11-(oxycarbonyl-(1-(3-cyanobenzenesulfonyl)-azetidin-3-yl)-imino)-erythromycin A] | 4 (≈ 4.8 µM) | <0.06 | <0.06 | <0.06 | 0.25 (≈ 0.3 µM)
CCC1OC(=O)C(C)C(=O)C(C)C(OC2OC(C)CC(N(C)C)C2O)C(C)(OC)CC(C)C(=O)C(C)C2N(C3CN(S(=O)(=O)c4ccc(C#N)cc4)C3)C(=O)OC12C (stereo not shown) [Example 3.11, 3-descladinosyl-11,12-dideoxy-6-O-methyl-3-oxo-12,11-(oxycarbonyl-(1-(4-cyanobenzenesulfonyl)-azetidin-3-yl)-imino)-erythromycin A] | 8 (≈ 9.6 µM) | <0.06 | <0.06 | 0.5 (≈ 0.6 µM) | 0.25 (≈ 0.3 µM)
CCC1OC(=O)C(C)C(=O)C(C)C(OC2OC(C)CC(N(C)C)C2O)C(C)(OC)CC(C)C(=O)C(C)C2N(C3CN(S(=O)(=O)c4cnn(-c5ccccc5)c4C)C3)C(=O)OC12C (stereo not shown) [Example 3.12, 5-methyl-1-phenyl-1H-pyrazole-4-sulfonyl] | 64 (≈ 72.1 µM) | <0.06 | 1 (≈ 1.13 µM) | <0.06 | 4 (≈ 4.5 µM)
